The record followed here is US20190209641A1, “METHODS FOR PREVENTING OR TREATING METABOLIC SYNDROME” (Cornell University, priority 2009, published 2019).

One assay deals with DIO C57BL/6 mice. Description: Diet-induced obesity (DIO) in C57BL/6 mice, Example 3. It is filed as in vivo, mouse. The note with it: for Glucose Tolerance (IPGTT), Week 5: DIO vehicle 1719.7 ± 56.8, chow vehicle 1213.6 ± 54.1; for glucose tolerance in the obese mouse model (in words): IPGTT, 1 g/kg D-glucose i.p.; for abdominal fat index / subcutaneous fat index: after 14 weeks of treatment. The procedure:
To analyze the pharmacodynamic effects of SS-31 and SS-20 against diet-induced obesity (D10) in C57BL/6 mice, the test subjects were fed either a normal diet or a high-fat diet having the composition shown in Table 9.
After several days of acclimation, animals were weighted and randomly assigned to the following treatment groups.
Starting from the first day of treatment, animals in Groups B to I were switched to HFD. During the entire treatment period, the following activities were performed on specific days.
Dose Preparation & Administration. The treatment was given once a day (5 days a week) with injection site alternated. The concentration of SS-31 and SS-20 dosed at 3 mg/kg was 0.6 mg/ml and that of 10 mg/kg was 2 mg/ml. The treatment volume (0.05 mUl0 g for s.c. and 0.2 ml/10 g for p.o.) for each test animal was adjusted according to its body weight taken on the beginning of each week.
Blood Sample Collection. Blood samples were collected by tail snip according to the Medicilon/MPI Preclinical Research (Shanghai) LLC SOP on Blood Collection Techniques. […] Collected blood samples were set at room temperature for 1 hour to allow clotting before being centrifuged at 2,000×g for 10 min. The supernatant were collected and re-centrifuged at 2,000×g for another 10 min. to generate the serum. Part of the serum samples were used for total cholesterol (TC) analysis immediately. The rest were stored at −20° C. until being used in insulin analysis.
Serum Insulin, Triglyceride (TG) & Total Cholesterol (TC). Serum insulin levels were measured using Rat/Mouse Insulin ELISA Kit from Millipore Corporation (Catalog # EZRMI-13K, St. Charles, Mo., USA). Serum TG levels were measured by automatic biochemical analyzer. FIG. 5A is a chart illustrating the effects of peptide treatment on triglycerides in a murine model of diet-induced obesity after 14 weeks of treatment. FIG. 5B is a chart illustrating the effects of peptide treatment on total cholesterol in a murine model of diet-induced obesity after 14 weeks of treatment. FIG. 5C is a chart illustrating the effects of peptide treatment on HDL cholesterol in a murine model of diet-induced obesity after 14 weeks of treatment.
IPGTT. IPGTT was performed according to the Medicilon-MPI Preclinical Research (Shanghai) LLC SOP on Intraperitoneal (IP) Glucose Tolerance Test with slight modifications. Mice were fast overnight before the baseline glucose levels assessed in the next morning. After that, an IP injection of 1 g/kg D-glucose was given to each animal and the blood glucose levels were then measured on 15, 30, 60 and 120 minutes post the IP injection.

In the next assay the test system is HFD/STZ SD rats. Description: Rat model of metabolic syndrome (HFD + low-dose STZ), Example 1. The following applies: for body weight increase over the 10-week treatment period: 10 mg/kg s.c. q.d. 5 days a week, by the end of 10th week, HFD/STZ control 3.6%, NRC 23.3%; for effect on blood glucose: 10 mg/kg s.c., week 4 post peptide treatment, vs. HFD/STZ vehicle rats. In kind it is in vivo. As to the method: The effects of aromatic-cationic peptides in treating a subject suffering from metabolic syndrome were investigated in a Sprague-Dawley rat model over […]. The example describes the results of such experiments.
In vivo models. A rat model of metabolic syndrome was established by combination of 6-week HFD and low-dose STZ (40 mg/kg) injection in SD rats. Rats of the same batch fed with normal chow (NRC) were used as a control.
Study groups. Group A: NRC+PBS s.c. q.d. (Mon-Fri)*, n=5; Group B: HFD +STZ+PBS s.c. q.d. (Mon-Fri), n=8; Group C:HFD+STZ+SS-31 10 mg/kg s.c. q.d. (Mon-Fri), n=8; Group D: HFD+STZ+SS-20 10 mg/kg s.c. q.d. (Mon-Fri), n=8.
Preparation and administration of test compounds. SS-31 or SS-20 was dissolved in 0.01 M PBS (pH 7.0). The 10-week treatment was given once a day (5 days a week) with s.c. injection site alternated. The concentration of SS-31 and SS-20 was 5.0 mg/mL. The injection volume (0.2 mL/100 g) for each test animal was adjusted according to body weight taken on the beginning of each week. STZ was dissolved in 0.1 M citrate buffer (pH 4.5) to concentration of 20 mg/mL. STZ is injected intraperitoneally.
Blood glucose. Blood glucose was tested by ACCU-CHEK® Advantage™ blood glucose meter and test strips from Roche diagnostics GmbH (Mannheim, Germany).
Blood sample handling. Blood samples were collected by tail snip. […] Collected blood samples were set at room temperature for 30 min to allow clotting before being centrifuged at 1,200×g for 10 min. The supernatant were collected and re-centrifuged at 1,200×g for another 5 min to generate the serum. Serum samples were aliquotted and stored at −20° C. until being used in analysis.
Statistics: Statistic analysis oft-test and one-way ANOVA was performed by SPSS (Statistical Package for Social Science) analysis software.

For the next assay, the system named is HFD/STZ rats. Description: HFD/STZ rat model of metabolic syndrome, 10-week peptide treatment, Example 2. It is filed as in vivo. The following applies: for TG level before peptide treatment: baseline; for change in blood glucose during 10-week peptide treatment / change in body weight during 10-week peptide treatment: SS-31 10, 3, 1 mg/kg or SS-20 10, 3 mg/kg s.c. once daily 5 days a week. As to the method: This study was initiated to investigate the effects of SS-31 and SS-20 in a model of metabolic syndrome over a 10 week period. Rats were fed with a high-fat diet for 6 weeks and then administered a single dose of STZ (30 mg/kg). The rats were maintained on a HFD until 14 weeks after STZ administration. Control rats fed normal rat chow (NRC) for 6 weeks were then administered citrate buffer without STZ. After 5 months, diabetic rats were treated with SS-31 (10 mg/kg, 3 mg/kg, 1 mg/kg s.c. once daily), SS-20 (10 mg/kg, 3 mg/kg s.c. once daily) or vehicle (saline) 5 days a week for 10 weeks. The study groups were as follows:
Group A: HFD/STZ+SS-31 10 mg/kg s.c. q.d. (Mon-Fri.), n=12;
Group B: HFD/STZ+SS-31 3 mg/kg s.c. q.d. (Mon-Fri.), n=12;
Group C: HFD/STZ+SS-31 1 mg/kg s.c. q.d. (Mon-Fri.), n=10;
Group D: HFD/STZ+SS-20 10 mg/kg s.c. q.d. (Mon-Fri.), n=10;
Group E: HFD/STZ+SS-20 3 mg/kg s.c. q.d. (Mon-Fri.), n=10;
Group F: HFD/STZ+vehicle s.c. q.d. (Mon-Fri.), n=10;
Group G: NRC +vehicle s.c. q.d. (Mon-Fri.), n=10.
HFD feeding for 6 weeks produced obvious body weight gain (452.9±3.8g in HFD group vs. 425.5±7.1 g, P<0.01) and STZ administration increased blood glucose (26.5±0.5 mmol/L in HFD/STZ rats vs. 9.8±0.5 mmol/L in NRC rats, P<0.001) and hyperlipidemia (P<0.01), indicating a metabolic syndrome-like disorder in these test subjects.

In assay [1] the test system is STZ-induced diabetic Sprague-Dawley rats. Description: STZ diabetes model in male Sprague-Dawley rats, Example 4. It is filed as in vivo, rat. The note with it: 10 mg/kg s.c. q.d. 5 days a week, after peptide treatment for 2 weeks or 4 weeks, vs. STZ/Saline group. The procedure: The objective of this study was to explore the protective effect of SS-31 or SS-20 against Streptozotocin (STZ) induced diabetic complications and metabolic syndrome in male Sprague-Dawley rats.
Rat models of type 1 diabetes were established by administration of high-dose STZ (30 mg/kg). Rats of the same batch fed with regular chow are used as normal control. The study groups included: Group A: STZ+SS-31 10 mg/kg s.c. q.d. (M.-F.), n=11; Group B: STZ+SS-20 10 mg/kg s.c. q.d. (M.-F.), n=11; Group C: STZ+vehicle s.c. q.d. (M.-F.), n=10; Group D: NRC +vehicle s.c. q.d. (M.-F.), n=10.
The compounds were dissolved in saline. The treatment was given once a day (5 days a week) with injection site to be alternated. The concentration of SS-31 and SS-20 dosed at 10mg/kg is 5mg/ml. The treatment volume (0.2 ml/100 g for s.c.) for each test animal was adjusted according to its body weight taken on the beginning of each week. STZ was dissolved in 0.1 M citrate buffer (pH4.5) to concentration of 20 mg/mL. STZ was injected intraperitoneally.

The mark [2] stands for this setting: 10 mg/kg s.c. q.d. 5 days a week.

“And” between values parts separate entries of the source, which are not always exact repeats. Equal entries are not always repeated. Non-standard residues stand in square brackets, D forms with d. No end group written: not given here.

Turning to `CN(CCOc1ccc(CC2SC(=O)NC2=O)cc1)c1ccccn1` (centres unmarked) [Rosi, Rosiglitazone, reference compound], the “Glucose Tolerance (IPGTT), Week 5” value in the assay on DIO C57BL/6 mice (2 mg/kg p.o.) is given as 1487.5 ± 44.2.
Take D-Arg-2′,6′-Dmt-Lys-Phe-NH2 [SS-31]: in the assay on HFD/STZ SD rats, the “body weight increase over the 10-week treatment period” value is on record as 16.3% and the “effect on blood glucose” value was “down-regulation effect on blood glucose”. Moreover, in the assay on HFD/STZ rats (3 mg/kg group), the “TG level before peptide treatment” value worked out at 4.17 ± 0.88 mM. The “TG level after 10 weeks' peptide treatment” value in the assay with HFD/STZ rats (3 mg/kg s.c. q.d. 5 days a week) amounted to 2.46 ± 0.52 mM. Moreover, the “TG level before peptide treatment” value in the assay with HFD/STZ rats (10 mg/kg group) was found to be 3.77 ± 0.38 mM. Also, in the assay with HFD/STZ rats (setting [2]), the “TG level after 10 weeks' peptide treatment” value was 1.75 ± 0.33 mM. Also, in the assay on HFD/STZ rats, the “change in blood glucose during 10-week peptide treatment” value was “no obvious changes” and the “change in body weight during 10-week peptide treatment” value was “no obvious changes”. In addition, in the assay with DIO C57BL/6 mice (3 mg/kg s.c.), the “Glucose Tolerance (IPGTT), Week 5” value came to 1460.6 ± 64.1. The “Glucose Tolerance (IPGTT), Week 5” value in the assay on DIO C57BL/6 mice (10 mg/kg s.c.) stood at 1584.3 ± 78.3. Further, in the assay on DIO C57BL/6 mice, the “glucose tolerance in the obese mouse model (in words)” value is listed as “significantly improve glucose tolerance”, the abdominal fat index result is given as “capable of reducing” and the subcutaneous fat index result is recorded as “capable of reducing”. For the same compound, in assay [1], the TG level entry is “increased less than STZ/Saline group”.
Turning to F[dR]FK-NH2 [SS-20], in the assay on HFD/STZ SD rats, the “body weight increase over the 10-week treatment period” value was 9.0% and the “effect on blood glucose” value is “down-regulation effect on blood glucose”. Also, the “TG level before peptide treatment” value in the assay on HFD/STZ rats (3 mg/kg group, 3 mg/kg) is 4.66 ± 1.40 mM and 3.90 ± 0.65 mM. The “TG level after 10 weeks' peptide treatment” value in the assay with HFD/STZ rats (3 mg/kg s.c. q.d. 5 days a week, 3 mg/kg) is 2.43 ± 0.47 mM and 3.70 ± 1.16 mM. For the same compound, in the assay on HFD/STZ rats (10 mg/kg group), the “TG level before peptide treatment” value came out at 4.17 ± 1.02 mM. Further, the “TG level after 10 weeks' peptide treatment” value in the assay with HFD/STZ rats (setting [2]) came out at 1.97 ± 0.46 mM. Moreover, in the assay on HFD/STZ rats, the “change in blood glucose during 10-week peptide treatment” value is reported as “no obvious changes” and the “change in body weight during 10-week peptide treatment” value was “no obvious changes”. The “Glucose Tolerance (IPGTT), Week 5” value in the assay on DIO C57BL/6 mice (3 mg/kg s.c.) amounted to 1534.1 ± 53.3. In the assay with DIO C57BL/6 mice (10 mg/kg s.c.), the “Glucose Tolerance (IPGTT), Week 5” value is 1494.5 ± 54.4. Moreover, in the assay on DIO C57BL/6 mice, the “glucose tolerance in the obese mouse model (in words)” value is reported as “significantly improve glucose tolerance”, the abdominal fat index entry is “capable of reducing” and the subcutaneous fat index entry was “capable of reducing”. Also, in assay [1], the TG level result was “increased less than STZ/Saline group”.
